Ki and EC50 data for five compounds are collected here from patent US12252524B2, “GIP/GLP1 co-agonist compounds” (Eli Lilly and Company, priority 2018, dated 2025).

Molecules are shown by their SMILES. Numbered stars: 1 amine (or outer) side, 2 acyl side, 3 side chain; on linkers, the order of the positions; unused ones are H or OH. Square brackets hold non-standard residues; d marks the D form. Side chains are listed from the residue outwards. Peptide text beside a SMILES is read from it. * marks the point of attachment. C20 diacid = O=C(O)CCCCCCCCCCCCCCCCCCC(=O)*; αMePhe(2-F) = C[C@](N)(Cc1ccccc1F)C(=O)O; γGlu = O=C(O)[C@H](CCC(=O)[*:2])N[*:1]; αMeF = C[C@](N)(Cc1ccccc1)C(=O)O; Aad = N[C@@H](CCCC(=O)O)C(=O)O; αMeL = CC(C)C[C@](C)(N)C(=O)O; AEEA = NCCOCCOCC(=O)O; Aib = CC(C)(N)C(=O)O

In assay [1] the target is T1, human Gcg receptor (Homo sapiens, UniProt P47871).
T1 construct: expressed in transfected cells; crude membranes
In words: [125I]-Glucagon binding (SPA), human Gcg receptor. Conditions: read-out: hGLcgR Ki, nM (SEM, n). The gist of the method: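 Cell pellets were lysed in hypotonic Tris buffer, pH 7.5, homogenized, and spun at low then high speed to give crude membranes. Ki was derived from the fitted IC50.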

In assay [2] the target is human GLP-1R (Homo sapiens, UniProt P43220). In words: [125I]-GLP-1 binding (SPA), human GLP-1 receptor. To be noted: read-out: hGLP1R Ki, (nM) (SEM, n). The arrangement: expressed in transfected cells; crude membranes. The gist of the method: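 Membranes: hypotonic lysis (50 mM Tris HCl, pH 7.5, protease inhibitors), Potter-Elvehjem homogenization, high-speed pellet (35000×g 1 h or 25000×g 30 min, 4° C.). Buffer: 25 mM HEPES pH 7.4, 2.5 mM CaCl2, 1 mM MgCl2. Four-parameter IC50 fit; Ki as geometric mean ± SEM.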

Assay [3] concerns the target T2, gastric inhibitory peptide receptor (GIPR) (Homo sapiens, UniProt P48546).
T2 sequence (P48546 22-466): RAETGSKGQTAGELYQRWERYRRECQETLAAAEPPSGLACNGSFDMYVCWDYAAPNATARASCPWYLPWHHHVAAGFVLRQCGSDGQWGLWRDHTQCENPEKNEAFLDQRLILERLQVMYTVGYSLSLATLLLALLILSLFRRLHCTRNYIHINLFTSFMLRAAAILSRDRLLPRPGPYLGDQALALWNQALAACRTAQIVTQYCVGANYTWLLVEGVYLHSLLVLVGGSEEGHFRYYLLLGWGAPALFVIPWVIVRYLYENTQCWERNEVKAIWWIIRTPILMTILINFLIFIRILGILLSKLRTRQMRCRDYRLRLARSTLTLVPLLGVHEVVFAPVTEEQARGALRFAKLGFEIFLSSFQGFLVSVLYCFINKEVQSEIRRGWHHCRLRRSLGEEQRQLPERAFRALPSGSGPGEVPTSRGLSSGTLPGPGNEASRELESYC
As to the kind of experiment: cAMP pharmacological functional assay in presence of casein, hGIPR. Type of assay: cell-based. Conditions: HEK293 cells expressing hGIPR, 0.1% Casein, geometric mean; read-out: hGIPR cAMP Rel EC50 nM (SEM, n).

In assay [4] the target is human GLP-1 receptor (GLP-1R) (Homo sapiens, UniProt P43220). As to the kind of experiment: cAMP pharmacological functional assay in presence of casein, hGLP-1R. Format: cell-based. To be noted: HEK293 cells expressing hGLP-1R, 0.1% Casein, geometric mean; read-out: hGLP1R cAMP Rel EC50 nM (SEM, n).
In assay [5] the target is T3, human GIP receptor (Homo sapiens, UniProt P48546).
T3 construct: expressed in transfected cells; crude membranes
T3 sequence (P48546 22-466): T2 sequence (P48546 22-466)
In words: [125I]-GIP binding (SPA), human GIP receptor. To be noted: read-out: hGIPR Ki, nM (SEM, n).

human GLP-1 receptor (GLP-1R), sequence (P43220 24-463): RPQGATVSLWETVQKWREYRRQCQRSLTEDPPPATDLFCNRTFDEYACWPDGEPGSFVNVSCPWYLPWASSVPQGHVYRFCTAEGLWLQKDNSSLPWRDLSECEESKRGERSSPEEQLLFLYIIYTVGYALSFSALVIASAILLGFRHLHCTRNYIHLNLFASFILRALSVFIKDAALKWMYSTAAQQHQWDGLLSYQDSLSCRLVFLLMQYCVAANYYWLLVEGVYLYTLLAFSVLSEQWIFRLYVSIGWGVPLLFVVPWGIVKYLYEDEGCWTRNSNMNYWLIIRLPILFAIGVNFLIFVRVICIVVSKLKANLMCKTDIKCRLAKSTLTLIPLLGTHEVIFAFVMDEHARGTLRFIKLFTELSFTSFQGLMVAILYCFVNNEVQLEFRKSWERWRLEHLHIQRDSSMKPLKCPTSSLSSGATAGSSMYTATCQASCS
human GLP-1R, sequence (P43220 24-463): as above
T1 sequence (P47871 26-477): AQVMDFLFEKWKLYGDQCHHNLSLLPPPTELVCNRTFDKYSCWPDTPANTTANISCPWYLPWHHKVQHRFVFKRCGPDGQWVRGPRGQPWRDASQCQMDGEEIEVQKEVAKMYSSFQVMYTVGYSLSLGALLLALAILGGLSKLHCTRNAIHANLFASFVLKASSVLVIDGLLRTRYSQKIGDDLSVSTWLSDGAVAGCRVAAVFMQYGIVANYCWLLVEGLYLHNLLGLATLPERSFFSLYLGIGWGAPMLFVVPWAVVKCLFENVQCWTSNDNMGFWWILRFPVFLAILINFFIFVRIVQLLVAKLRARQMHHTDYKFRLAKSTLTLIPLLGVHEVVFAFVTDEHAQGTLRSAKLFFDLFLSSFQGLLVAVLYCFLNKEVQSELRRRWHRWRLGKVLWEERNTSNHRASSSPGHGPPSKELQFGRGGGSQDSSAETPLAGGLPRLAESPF

With `CC[C@H](C)[C@H](NC(=O)[C@H](CC(C)C)NC(=O)[C@H](Cc1ccc(O)cc1)NC(=O)[C@H](CCC(=O)O)NC(=O)[C@@H](NC(=O)[C@H](Cc1ccccc1)NC(=O)[C@H](Cc1c[nH]cn1)NC(=O)C(C)(C)NC(=O)[C@H](CCC(N)=O)NC(=O)[C@H](C)NC(=O)[C@H](CCCCNC(=O)COCCOCCNC(=O)COCCOCCNC(=O)CC[C@H](NC(=O)CCCCCCCCCCCCCCCCCCC(=O)O)C(=O)O)NC(=O)[C@H](CCCCN)NC(=O)[C@H](CC(=O)O)NC(=O)[C@H](CC(C)C)NC(=O)[C@](C)(CC(C)C)NC(=O)[C@@H](NC(=O)[C@H](CO)NC(=O)[C@H](Cc1ccc(O)cc1)NC(=O)[C@H](CC(=O)O)NC(=O)[C@H](CO)NC(=O)[C@@H](NC(=O)[C@](C)(Cc1ccccc1)NC(=O)[C@@H](NC(=O)CNC(=O)[C@H](CCC(=O)O)NC(=O)C(C)(C)NC(=O)[C@@H](N)Cc1ccc(O)cc1)[C@@H](C)O)[C@@H](C)O)[C@@H](C)CC)[C@@H](C)CC)C(=O)N[C@@H](CCC(=O)O)C(=O)NCC(=O)NCC(=O)N1CCC[C@H]1C(=O)N[C@@H](CO)C(=O)N[C@@H](CO)C(=O)NCC(=O)N[C@@H](C)C(=O)N1CCC[C@H]1C(=O)N1CCC[C@H]1C(=O)N1CCC[C@H]1C(=O)N[C@@H](CO)C(N)=O` [Example 142] (H-Y[Aib]EGT[αMeF]TSDYSI[αMeL]LDKK([AEEA-AEEA-γGlu-C20 diacid])AQ[Aib]HFIEYLIEGGPSSGAPPPS-NH2; N-terminus assumed), the Ki in assay [1] turned out to be 53.1 nM; in assay [2] it was 1.06 nM; in assay [5], 0.0275 nM. Moreover, the EC50 in assay [3] came out at 0.0489 nM; in assay [4], 0.0426 nM.
On to `CC[C@H](C)[C@H](NC(=O)[C@H](CC(C)C)NC(=O)[C@H](Cc1ccc(O)cc1)NC(=O)[C@H](CCC(=O)O)NC(=O)[C@@H](NC(=O)[C@H](Cc1ccccc1)NC(=O)C(C)(C)NC(=O)C(C)(C)NC(=O)[C@H](CCC(N)=O)NC(=O)[C@H](C)NC(=O)[C@H](CCCCNC(=O)COCCOCCNC(=O)COCCOCCNC(=O)CC[C@H](NC(=O)CCCCCCCCCCCCCCCCCCC(=O)O)C(=O)O)NC(=O)[C@H](CCCCN)NC(=O)[C@H](CC(=O)O)NC(=O)[C@H](CC(C)C)NC(=O)[C@](C)(CC(C)C)NC(=O)[C@@H](NC(=O)[C@H](CO)NC(=O)[C@H](Cc1ccc(O)cc1)NC(=O)[C@H](CC(=O)O)NC(=O)[C@H](CO)NC(=O)[C@@H](NC(=O)[C@](C)(Cc1ccccc1)NC(=O)[C@@H](NC(=O)CNC(=O)[C@H](CCC(=O)O)NC(=O)C(C)(C)NC(=O)[C@@H](N)Cc1ccc(O)cc1)[C@@H](C)O)[C@@H](C)O)[C@@H](C)CC)[C@@H](C)CC)C(=O)N[C@@H](CCC(=O)O)C(=O)NCC(=O)NCC(=O)N1CCC[C@H]1C(=O)N[C@@H](CO)C(=O)N[C@@H](CO)C(=O)NCC(=O)N[C@@H](C)C(=O)N1CCC[C@H]1C(=O)N1CCC[C@H]1C(=O)N1CCC[C@H]1C(=O)N[C@@H](CO)C(N)=O` [Example 143] (H-Y[Aib]EGT[αMeF]TSDYSI[αMeL]LDKK([AEEA-AEEA-γGlu-C20 diacid])AQ[Aib][Aib]FIEYLIEGGPSSGAPPPS-NH2), for which the values for the Ki in assay [1], in assay [2] and in assay [5] were 65.5 nM, 1.15 nM and 0.0304 nM, respectively. Further, the EC50 in assay [3] stood at 0.0515 nM; in assay [4], 0.0745 nM.
For `CC[C@H](C)[C@H](NC(=O)[C@H](CC(C)C)NC(=O)[C@H](Cc1ccc(O)cc1)NC(=O)[C@H](CCC(=O)O)NC(=O)[C@@H](NC(=O)[C@H](Cc1ccccc1)NC(=O)C(C)(C)NC(=O)[C@H](Cc1c[nH]cn1)NC(=O)[C@H](CCC(N)=O)NC(=O)[C@H](C)NC(=O)[C@H](CCCCNC(=O)COCCOCCNC(=O)COCCOCCNC(=O)CC[C@H](NC(=O)CCCCCCCCCCCCCCCCCCC(=O)O)C(=O)O)NC(=O)[C@H](CCCCN)NC(=O)[C@H](CC(=O)O)NC(=O)[C@H](CC(C)C)NC(=O)[C@](C)(CC(C)C)NC(=O)[C@@H](NC(=O)[C@H](CO)NC(=O)[C@H](Cc1ccc(O)cc1)NC(=O)[C@H](CC(=O)O)NC(=O)[C@H](CO)NC(=O)[C@@H](NC(=O)[C@](C)(Cc1ccccc1)NC(=O)[C@@H](NC(=O)CNC(=O)[C@H](CCC(=O)O)NC(=O)C(C)(C)NC(=O)[C@@H](N)Cc1ccc(O)cc1)[C@@H](C)O)[C@@H](C)O)[C@@H](C)CC)[C@@H](C)CC)C(=O)N[C@@H](CCC(=O)O)C(=O)NCC(=O)NCC(=O)N1CCC[C@H]1C(=O)N[C@@H](CO)C(=O)N[C@@H](CO)C(=O)NCC(=O)N[C@@H](C)C(=O)N1CCC[C@H]1C(=O)N1CCC[C@H]1C(=O)N1CCC[C@H]1C(=O)N[C@@H](CO)C(N)=O` [Example 144] (H-Y[Aib]EGT[αMeF]TSDYSI[αMeL]LDKK([AEEA-AEEA-γGlu-C20 diacid])AQH[Aib]FIEYLIEGGPSSGAPPPS-NH2) the same measures were 77 nM, 1.78 nM, 0.0341 nM, 0.0375 nM and 0.0608 nM.
As to `CC[C@H](C)[C@H](NC(=O)[C@H](CC(C)C)NC(=O)[C@H](Cc1ccc(O)cc1)NC(=O)[C@H](CCC(=O)O)NC(=O)[C@@H](NC(=O)[C@H](Cc1ccccc1)NC(=O)[C@H](C)NC(=O)C(C)(C)NC(=O)[C@H](CCC(N)=O)NC(=O)[C@H](C)NC(=O)[C@H](CCCCNC(=O)COCCOCCNC(=O)COCCOCCNC(=O)CC[C@H](NC(=O)CCCCCCCCCCCCCCCCCCC(=O)O)C(=O)O)NC(=O)[C@H](CCCCN)NC(=O)[C@H](CC(=O)O)NC(=O)[C@H](CC(C)C)NC(=O)[C@](C)(CC(C)C)NC(=O)[C@@H](NC(=O)[C@H](CO)NC(=O)[C@H](C)NC(=O)[C@H](CC(=O)O)NC(=O)[C@H](CO)NC(=O)[C@@H](NC(=O)[C@](C)(Cc1ccccc1)NC(=O)[C@@H](NC(=O)CNC(=O)[C@H](CCC(=O)O)NC(=O)C(C)(C)NC(=O)[C@@H](N)Cc1ccc(O)cc1)[C@@H](C)O)[C@@H](C)O)[C@@H](C)CC)[C@@H](C)CC)C(=O)N[C@@H](CCC(=O)O)C(=O)NCC(=O)NCC(=O)N1CCC[C@H]1C(=O)N[C@@H](CO)C(=O)N[C@@H](CO)C(=O)NCC(=O)N[C@@H](C)C(=O)N1CCC[C@H]1C(=O)N1CCC[C@H]1C(=O)N1CCC[C@H]1C(=O)N[C@@H](CO)C(N)=O` [Example 145] (H-Y[Aib]EGT[αMeF]TSDASI[αMeL]LDKK([AEEA-AEEA-γGlu-C20 diacid])AQ[Aib]AFIEYLIEGGPSSGAPPPS-NH2), the Ki amounted to 158 nM in assay [1], 2.22 nM in assay [2] and 0.0652 nM in assay [5]. Moreover, the EC50 in assay [3] stood at 0.0514 nM; in assay [4], 0.0427 nM.
`CC[C@H](C)[C@H](NC(=O)[C@H](CC(C)C)NC(=O)[C@H](Cc1ccc(O)cc1)NC(=O)[C@H](CCCC(=O)O)NC(=O)[C@@H](NC(=O)[C@H](Cc1ccccc1)NC(=O)[C@H](CCC(=O)O)NC(=O)C(C)(C)NC(=O)[C@H](CCC(N)=O)NC(=O)[C@H](C)NC(=O)[C@H](CCCCNC(=O)COCCOCCNC(=O)COCCOCCNC(=O)CC[C@H](NC(=O)CCCCCCCCCCCCCCCCCCC(=O)O)C(=O)O)NC(=O)[C@H](CCC(=O)O)NC(=O)[C@H](CC(=O)O)NC(=O)[C@H](CC(C)C)NC(=O)[C@](C)(CC(C)C)NC(=O)[C@@H](NC(=O)[C@H](CO)NC(=O)[C@H](Cc1ccc(O)cc1)NC(=O)[C@H](CC(=O)O)NC(=O)[C@H](CO)NC(=O)[C@@H](NC(=O)[C@](C)(Cc1ccccc1F)NC(=O)[C@@H](NC(=O)CNC(=O)[C@H](CCC(=O)O)NC(=O)C(C)(C)NC(=O)[C@@H](N)Cc1ccc(O)cc1)[C@@H](C)O)[C@@H](C)O)[C@@H](C)CC)[C@@H](C)CC)C(=O)N[C@@H](CCC(=O)O)C(=O)NCC(=O)NCC(=O)N1CCC[C@H]1C(=O)N[C@@H](CO)C(=O)N[C@@H](CO)C(=O)NCC(=O)N[C@@H](C)C(=O)N1CCC[C@H]1C(=O)N1CCC[C@H]1C(=O)N1CCC[C@H]1C(=O)N[C@@H](CO)C(N)=O` [Example 147] (H-Y[Aib]EGT[αMePhe(2-F)]TSDYSI[αMeL]LDEK([AEEA-AEEA-γGlu-C20 diacid])AQ[Aib]EFI[Aad]YLIEGGPSSGAPPPS-NH2): the Ki in assay [1] worked out at 64.9 nM; in assay [2] it was 4.47 nM; in assay [5] it was 0.0981 nM. In addition, the 50% effective concentration (EC50) in assay [3] worked out at 0.0304 nM; in assay [4], 0.0527 nM.

For orientation: Ki means a measure of affinity in units of concentration, obtained from inhibition or displacement. The EC50 is the midpoint of the concentration-response curve.
